Consider two compounds from patent US20210114029A1, “DEVICES, SYSTEMS, AND METHODS FOR HIGH THROUGHPUT SINGLE CELL ANALYSIS” (Duke University, priority 2017, published 2021).

One test concerns K562 cells. Nature of the test: Growth of K562 single cell colonies in microfluidic trap array in the presence of Imatinib. The class given is cell-based. To be noted: K562 cells grown with 0.1 μM, 0.3 μM, 0.5 μM Imatinib or control; FIG. 20. The text has this:
(§1) Cells were introduced to the array and transferred to the interior chambers with a gentle trap and transfer technique that is similar to previously reported methods (Dura, et al. (2014), “Deformability-based microfluidic cell pairing and fusion”, Lab. Chip 14:2783). Specifically, we first captured cells at the entrance of the traps, and next transferred the cells into the chambers with a brief pressure burst, causing the cells to squeeze through the narrow constrictions and move into the interior chambers. The widths of the constrictions were adjusted in the range of 3-6 microns, depending on the cell type the device was designed to capture. […] Flow control was achieved by adjusting negative pressure at the outlet, which allowed cells to be pipetted directly in the inlet reservoir with minimal losses from dead volume. Additionally, this approach allowed us to wash the cells from the inlet reservoir once the array was fully populated. […]
(§2) Cells were imaged twice per day and immediately returned to the incubator after each imaging cycle, requiring around 5-10 minutes for each chip. After 7 days, the imaging dataset was analyzed by custom computer vision software written in Python using a pre-trained Mask_RCNN image segmentation model. […]

A further test deals with MOLM 13 cells. Description: Growth of MOLM 13 cells in microfluidic chambers in the presence of Quizartinib. The class given is cell-based. To be noted: drug vs control medium, images FIG. 22A/22B.
Source text: as §1, §2

With `Cc1ccc(NC(=O)c2ccc(CN3CCN(C)CC3)cc2)cc1Nc1nccc(-c2cccnc2)n1` [Imatinib], the “growth rate distribution of colonies” value with K562 cells is “decreased growth rate with increasing drug concentration”.

As for `CC(C)(C)c1cc(NC(=O)Nc2ccc(-c3cn4c(n3)sc3cc(OCCN5CCOCC5)ccc34)cc2)no1` [Quizartinib], the “outgrowth of clones in the presence of the drug” value with MOLM 13 cells is “A single clone is observed to grow out in the presence of the drug”.
